Targets include PIM2 (human) (UniProt Q9P1W9); KIT (human) (UniProt P10721); RIOK2 (human) (UniProt Q9BVS4); PIM1 (human) (UniProt P11309); ACVR2A (human) (UniProt P27037); BMP2K (human) (UniProt Q9NSY1); MAP2K3 (human) (UniProt P46734); DAPK1 (human) (UniProt P53355); CLK4 (human) (UniProt Q9HAZ1); CDK7 (human) (UniProt P50613); SRPK3 (human) (UniProt Q9UPE1); CIT (human) (UniProt O14578); MAP4K2 (human) (UniProt Q12851); BMPR1B (human) (UniProt O00238); TTK (human) (UniProt P33981); RIOK3 (human) (UniProt O14730); MAPK15 (human) (UniProt Q8TD08); CSNK2A1 (human) (UniProt P68400); TGFBR2 (human) (UniProt P37173); NEK2 (human) (UniProt P51955); STK11 (human) (UniProt Q15831); CSNK2A2 (human) (UniProt P19784); SRPK2 (human) (UniProt P78362); FLT3 (human) (UniProt P36888); ACVR1 (human) (UniProt Q04771); RPS6KA4 KD2 (human) (UniProt O75676); AURKB (human) (UniProt Q96GD4); MELK (human) (UniProt Q14680); TAOK3 (human) (UniProt Q9H2K8); TLK1 (human) (UniProt Q9UKI8); MKNK2 (human) (UniProt Q9HBH9); MYLK3 (human) (UniProt Q32MK0); STK24 (human) (UniProt Q9Y6E0); MAPK8 (human) (UniProt P45983); TNIK (human) (UniProt Q9UKE5); GAK (human) (UniProt O14976); DCLK3 (human) (UniProt Q9C098).

What all share (assay): KINOMEscan competition binding
Common to all, as to conditions: compound 10.0 µM

In experiment [1] the test system is EIF2AK4 KD2 (human), Q9P2K8 [S808G].
EIF2AK4 KD2 (human), Q9P2K8 [S808G], sequence (Q9P2K8 whole entry S808G, looked up): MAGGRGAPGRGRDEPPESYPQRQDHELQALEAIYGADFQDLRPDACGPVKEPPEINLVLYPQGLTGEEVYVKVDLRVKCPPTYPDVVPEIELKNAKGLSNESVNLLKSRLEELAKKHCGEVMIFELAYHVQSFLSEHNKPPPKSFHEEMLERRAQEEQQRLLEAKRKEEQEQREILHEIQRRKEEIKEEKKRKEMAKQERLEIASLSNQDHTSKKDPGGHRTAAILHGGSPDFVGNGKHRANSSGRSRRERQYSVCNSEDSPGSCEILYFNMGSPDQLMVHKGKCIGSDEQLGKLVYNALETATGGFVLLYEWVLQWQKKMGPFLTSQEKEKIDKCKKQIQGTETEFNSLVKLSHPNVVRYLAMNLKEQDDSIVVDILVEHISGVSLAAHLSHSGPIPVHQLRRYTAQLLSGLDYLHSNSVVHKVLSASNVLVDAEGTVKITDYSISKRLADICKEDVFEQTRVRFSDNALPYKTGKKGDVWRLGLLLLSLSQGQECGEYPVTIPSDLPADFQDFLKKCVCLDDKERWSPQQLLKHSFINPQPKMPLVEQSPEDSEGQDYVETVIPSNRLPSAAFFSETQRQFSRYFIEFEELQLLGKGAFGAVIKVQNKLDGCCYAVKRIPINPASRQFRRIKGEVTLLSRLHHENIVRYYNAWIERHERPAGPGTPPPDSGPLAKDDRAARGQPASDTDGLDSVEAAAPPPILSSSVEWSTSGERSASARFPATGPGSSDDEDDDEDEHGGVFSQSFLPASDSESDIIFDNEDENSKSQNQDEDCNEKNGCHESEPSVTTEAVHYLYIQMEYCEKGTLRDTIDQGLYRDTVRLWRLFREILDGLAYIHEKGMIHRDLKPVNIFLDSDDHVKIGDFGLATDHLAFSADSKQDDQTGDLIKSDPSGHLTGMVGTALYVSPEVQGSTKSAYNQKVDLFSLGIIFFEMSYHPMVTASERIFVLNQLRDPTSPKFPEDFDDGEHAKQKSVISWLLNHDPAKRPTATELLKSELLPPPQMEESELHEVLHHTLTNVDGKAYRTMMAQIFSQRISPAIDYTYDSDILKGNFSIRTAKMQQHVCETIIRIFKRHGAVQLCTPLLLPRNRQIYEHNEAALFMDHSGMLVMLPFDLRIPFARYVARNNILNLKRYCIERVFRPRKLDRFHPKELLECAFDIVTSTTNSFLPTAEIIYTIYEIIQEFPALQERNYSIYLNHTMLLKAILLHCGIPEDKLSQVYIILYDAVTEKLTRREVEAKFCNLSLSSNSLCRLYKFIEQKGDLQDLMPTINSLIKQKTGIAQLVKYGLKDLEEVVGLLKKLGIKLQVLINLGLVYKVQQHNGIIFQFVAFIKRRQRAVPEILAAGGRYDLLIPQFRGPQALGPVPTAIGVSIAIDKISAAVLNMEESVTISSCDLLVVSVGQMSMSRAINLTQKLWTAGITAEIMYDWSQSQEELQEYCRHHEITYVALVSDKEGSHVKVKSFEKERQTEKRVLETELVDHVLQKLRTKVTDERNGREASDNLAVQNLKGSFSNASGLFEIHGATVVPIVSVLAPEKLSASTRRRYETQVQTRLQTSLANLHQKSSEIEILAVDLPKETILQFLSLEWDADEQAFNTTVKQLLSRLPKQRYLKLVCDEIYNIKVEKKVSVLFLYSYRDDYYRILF
Experiment [2] deals with KIT (human), P10721 [V559D].
Experiment [3] concerns KIT (human), P10721 [V559D/V654A].

NEK2 (human), sequence (P51955 whole entry, looked up): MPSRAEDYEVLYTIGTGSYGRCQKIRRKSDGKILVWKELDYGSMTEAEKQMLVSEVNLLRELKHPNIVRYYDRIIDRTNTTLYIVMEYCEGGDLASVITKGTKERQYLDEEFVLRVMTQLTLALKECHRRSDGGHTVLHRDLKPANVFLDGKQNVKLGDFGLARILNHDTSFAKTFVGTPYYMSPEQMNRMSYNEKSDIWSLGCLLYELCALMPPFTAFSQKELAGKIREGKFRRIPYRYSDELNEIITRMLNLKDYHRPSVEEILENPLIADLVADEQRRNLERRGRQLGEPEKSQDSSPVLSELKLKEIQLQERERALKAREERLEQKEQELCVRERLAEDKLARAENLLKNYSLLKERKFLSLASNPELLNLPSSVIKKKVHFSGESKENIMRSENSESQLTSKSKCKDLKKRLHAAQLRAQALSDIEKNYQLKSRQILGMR
CSNK2A2 (human), sequence (P19784 whole entry, looked up): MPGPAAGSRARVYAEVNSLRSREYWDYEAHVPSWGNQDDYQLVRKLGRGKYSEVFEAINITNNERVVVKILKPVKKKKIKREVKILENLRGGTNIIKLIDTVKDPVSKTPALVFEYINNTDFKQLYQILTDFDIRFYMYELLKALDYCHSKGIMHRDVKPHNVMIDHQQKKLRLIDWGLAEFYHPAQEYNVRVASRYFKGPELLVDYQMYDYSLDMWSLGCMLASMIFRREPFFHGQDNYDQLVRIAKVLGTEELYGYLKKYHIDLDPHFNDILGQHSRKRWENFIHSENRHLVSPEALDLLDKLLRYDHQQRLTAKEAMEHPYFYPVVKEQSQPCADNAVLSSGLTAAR
CLK4 (human), sequence (Q9HAZ1 whole entry, looked up): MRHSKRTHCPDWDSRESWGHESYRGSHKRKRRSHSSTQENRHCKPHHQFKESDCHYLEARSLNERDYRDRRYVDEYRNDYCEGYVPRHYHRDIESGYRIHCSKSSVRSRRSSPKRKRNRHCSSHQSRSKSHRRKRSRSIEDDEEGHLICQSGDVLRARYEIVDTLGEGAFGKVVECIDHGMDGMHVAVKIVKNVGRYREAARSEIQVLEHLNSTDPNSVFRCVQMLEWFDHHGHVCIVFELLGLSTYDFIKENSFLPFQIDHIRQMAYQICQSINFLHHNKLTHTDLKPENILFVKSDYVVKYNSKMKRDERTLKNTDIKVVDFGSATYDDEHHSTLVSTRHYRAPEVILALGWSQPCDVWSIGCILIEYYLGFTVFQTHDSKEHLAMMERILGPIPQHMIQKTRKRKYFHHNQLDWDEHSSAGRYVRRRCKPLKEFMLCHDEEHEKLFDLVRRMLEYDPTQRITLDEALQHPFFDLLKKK
BMPR1B (human), sequence (O00238 whole entry, looked up): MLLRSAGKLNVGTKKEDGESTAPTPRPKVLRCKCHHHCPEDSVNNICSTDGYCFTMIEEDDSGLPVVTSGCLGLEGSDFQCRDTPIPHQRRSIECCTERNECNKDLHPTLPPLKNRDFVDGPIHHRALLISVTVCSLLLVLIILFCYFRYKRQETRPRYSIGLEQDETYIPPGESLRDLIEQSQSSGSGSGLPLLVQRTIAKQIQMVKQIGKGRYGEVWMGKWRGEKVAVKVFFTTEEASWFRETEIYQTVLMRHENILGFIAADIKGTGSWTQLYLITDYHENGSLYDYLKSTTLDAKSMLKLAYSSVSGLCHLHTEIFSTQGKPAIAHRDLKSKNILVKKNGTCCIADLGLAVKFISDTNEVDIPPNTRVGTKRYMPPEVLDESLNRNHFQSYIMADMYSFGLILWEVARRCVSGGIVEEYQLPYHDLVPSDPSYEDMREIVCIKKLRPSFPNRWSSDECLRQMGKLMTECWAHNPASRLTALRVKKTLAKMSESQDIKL
SRPK3 (human), sequence (Q9UPE1 whole entry, looked up): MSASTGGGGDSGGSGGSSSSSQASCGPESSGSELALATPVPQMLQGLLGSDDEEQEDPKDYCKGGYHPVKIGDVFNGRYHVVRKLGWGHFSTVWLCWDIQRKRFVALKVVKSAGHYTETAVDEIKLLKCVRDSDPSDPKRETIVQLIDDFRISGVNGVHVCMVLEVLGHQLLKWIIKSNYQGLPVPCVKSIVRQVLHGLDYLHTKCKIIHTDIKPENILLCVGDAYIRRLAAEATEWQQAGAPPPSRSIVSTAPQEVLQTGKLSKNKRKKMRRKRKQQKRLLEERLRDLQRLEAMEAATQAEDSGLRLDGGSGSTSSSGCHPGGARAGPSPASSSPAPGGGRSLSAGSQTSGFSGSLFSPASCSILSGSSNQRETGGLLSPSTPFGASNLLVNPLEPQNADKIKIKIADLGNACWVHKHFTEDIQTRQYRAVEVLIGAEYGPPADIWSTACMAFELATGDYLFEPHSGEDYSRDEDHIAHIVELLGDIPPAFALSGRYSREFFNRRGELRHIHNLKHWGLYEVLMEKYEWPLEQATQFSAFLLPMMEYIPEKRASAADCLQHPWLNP
RPS6KA4 KD2 (human), sequence (O75676 whole entry, looked up): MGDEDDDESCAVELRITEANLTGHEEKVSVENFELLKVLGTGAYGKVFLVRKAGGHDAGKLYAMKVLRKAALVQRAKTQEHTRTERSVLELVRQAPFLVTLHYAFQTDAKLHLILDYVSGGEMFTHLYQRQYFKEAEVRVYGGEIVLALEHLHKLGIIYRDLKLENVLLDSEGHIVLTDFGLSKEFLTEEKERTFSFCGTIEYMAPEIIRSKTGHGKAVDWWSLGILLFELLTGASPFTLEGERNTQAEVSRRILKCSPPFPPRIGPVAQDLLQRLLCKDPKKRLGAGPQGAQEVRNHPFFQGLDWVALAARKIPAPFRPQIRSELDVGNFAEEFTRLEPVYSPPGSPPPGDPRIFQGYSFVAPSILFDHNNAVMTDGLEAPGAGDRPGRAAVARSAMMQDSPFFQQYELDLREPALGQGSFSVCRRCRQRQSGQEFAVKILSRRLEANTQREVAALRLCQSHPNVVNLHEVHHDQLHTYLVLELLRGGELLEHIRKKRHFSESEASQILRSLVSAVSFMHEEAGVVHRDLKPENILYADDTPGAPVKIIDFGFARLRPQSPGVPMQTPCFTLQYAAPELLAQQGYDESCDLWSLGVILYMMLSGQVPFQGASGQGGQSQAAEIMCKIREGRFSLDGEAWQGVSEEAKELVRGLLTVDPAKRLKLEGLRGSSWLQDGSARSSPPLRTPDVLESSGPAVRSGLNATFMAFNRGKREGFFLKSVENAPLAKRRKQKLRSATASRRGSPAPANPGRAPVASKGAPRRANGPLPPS

For the compound `CS(=O)(=O)Nc1ccc(-c2cc(/C=C3\SC(=N)NC3=O)c[nH]c2=O)cc1`, the kinase still bound, per cent of control on PIM2 (human) amounted to 3.4%; at KIT (human), 22%; at RIOK2 (human), 33%; at PIM1 (human), 9.5%; in experiment [1] it was 25%; on ACVR2A (human) it was 6.6%. Besides, the kinase still bound, per cent of control at BMP2K (human) was determined as 2.2%; in experiment [2], 12%; on MAP2K3 (human), 10%; at DAPK1 (human), 6.4%; at CLK4 (human) it was 6%; on CDK7 (human) it was 26%. The kinase still bound, per cent of control at SRPK3 (human) stood at 14%; on CIT (human), 23%; at MAP4K2 (human) it was 12%; on BMPR1B (human), 4.1%; at TTK (human), 33%; at RIOK3 (human), 6%. For the same compound, the kinase still bound, per cent of control on MAPK15 (human) stood at 0.1%; on CSNK2A1 (human), 4.8%; on TGFBR2 (human) it was 0.85%; on NEK2 (human) it was 19%; on STK11 (human), 7%; at CSNK2A2 (human), 3.4%. The kinase still bound, per cent of control at SRPK2 (human) came to 2.3%; on FLT3 (human), 8.6%; on ACVR1 (human), 27%; at RPS6KA4 KD2 (human), 0.35%.

As to `CN1C(=O)[C@H]2CCC[C@H]2N(C2CCCC2)c2nc(Nc3ccc(C(N)=O)cc3)ncc21`, the kinase still bound, per cent of control on AURKB (human) worked out at 8.6%; on MELK (human), 27%; on TAOK3 (human), 10%; on TLK1 (human), 8.6%; at RIOK2 (human), 6%; at PIM1 (human), 6.8%. The kinase still bound, per cent of control on MKNK2 (human) amounted to 16%; at BMP2K (human), 12%; at DAPK1 (human), 3.2%; on CLK4 (human), 5.2%; on MYLK3 (human) it was 5.5%; at CDK7 (human), 3.7%. For the same compound, the kinase still bound, per cent of control was 27% at SRPK3 (human); 28% at CIT (human); 13% on MAP4K2 (human); 14% at TTK (human); 16% on STK24 (human); 18% at MAPK15 (human). Also, the kinase still bound, per cent of control turned out to be 25% on CSNK2A1 (human); 13% on NEK2 (human); 4.1% in [3]; 29% on MAPK8 (human); 13% on TNIK (human); 15% at GAK (human). The kinase still bound, per cent of control turned out to be 1.4% at DCLK3 (human), 19% on FLT3 (human) and 0.55% at RPS6KA4 KD2 (human).

As to `CSC1=NC(=O)/C(=C/c2c[nH]c(=O)c(-c3ccc(NS(C)(=O)=O)cc3)c2)S1`, the kinase still bound, per cent of control is 1.7% on PIM2 (human); 13% at PIM1 (human); 16% in [1]; 2% on BMP2K (human); 29% on MAP2K3 (human); 3.7% at DAPK1 (human). Further, the kinase still bound, per cent of control at CDK7 (human) turned out to be 30%; on SRPK3 (human), 14%; on MAP4K2 (human) it was 7.7%; at BMPR1B (human) it was 7.4%; at RIOK3 (human), 7.4%; at MAPK15 (human), 5%. Further, the kinase still bound, per cent of control was 1.6% at CSNK2A1 (human); 14% on TGFBR2 (human); 27% on NEK2 (human); 15% on STK11 (human); 6.2% on CSNK2A2 (human); 3.4% on GAK (human). In addition, the values for the kinase still bound, per cent of control at SRPK2 (human) and on RPS6KA4 KD2 (human) were 13% and 0.15%, respectively.

Turning to `N=C1NC(=O)/C(=C/c2c[nH]c(=O)c(-c3ccc(N4CCNCC4)nc3)c2)S1`, the kinase still bound, per cent of control at PIM2 (human) came to 1.8%; on MELK (human), 27%; on PIM1 (human), 4%; in experiment [1] it was 1.4%; on BMP2K (human), 6.3%; at DAPK1 (human) it was 2.7%. Besides, the kinase still bound, per cent of control at CLK4 (human) came to 16%; on CDK7 (human), 8.8%; at SRPK3 (human), 23%; on MAP4K2 (human), 32%; at BMPR1B (human) it was 11%; on RIOK3 (human) it was 9.4%. In addition, the kinase still bound, per cent of control at MAPK15 (human) turned out to be 4%; on TGFBR2 (human) it was 33%; on NEK2 (human) it was 13%; on TNIK (human), 18%; on CSNK2A2 (human), 32%; on GAK (human), 30%. The kinase still bound, per cent of control at DCLK3 (human) worked out at 13%; at ACVR1 (human), 29%; at RPS6KA4 KD2 (human) it was 0.1%.

These data come from the kinase profiling compilation of Christmann-Franck et al. (2016).
